Measured values: EP1077981B1, “NOVEL CEPHALOSPORIN COMPOUNDS, PROCESSES FOR PREPARATION THEREOF AND ANTIMICROBIAL COMPOSITIONS CONTAINING THE SAME” (LG CHEMICAL LIMITED, priority 1998, dated 1999)
Converted amounts (≈) assume the structure as drawn.

What was measured:
Test in all cases: MIC against standard strains (agar dilution)
Type in all cases: cell-based
[1] = test system: Staphylococcus aureus 241; settings: Staphylococcus aureus 241; Mueller-Hinton agar, 20 hours at 37°C; read-out: MIC
Method in brief: (§1)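 Test compounds were serially diluted 2-fold in Mueller-Hinton agar, and each strain was spotted at 10^7 cfu/mℓ. Plates were incubated for 20 hours at 37°C, and the MIC was the lowest concentration inhibiting growth.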

[2] = test system: Staphylococcus epidermidi 887E; settings: Staphylococcus epidermidi 887E; Mueller-Hinton agar, 20 hours at 37°C; read-out: MIC
Method in brief: as §1

[3] = test system: Enterobacter cloacae P99; settings: Enterobacter cloacae P99; Mueller-Hinton agar, 20 hours at 37°C; read-out: MIC
Method in brief: as §1

[4] = test system: Citrobacter freundii 8090; settings: Citrobacter freundii 8090; Mueller-Hinton agar, 20 hours at 37°C; read-out: MIC
Method in brief: as §1

[5] = test system: Citrobacter diversus 2046E; settings: Citrobacter koseri; Citrobacter diversus 2046E; Mueller-Hinton agar, 20 hours at 37°C; read-out: MIC
Method in brief: as §1

[6] = test system: Staphylococcus aureus 6538p; settings: Staphylococcus aureus 6538p; Mueller-Hinton agar, 20 hours at 37°C; read-out: MIC
Method in brief: as §1

[7] = test system: Klebsiella aerogenes K1+ 1082E; settings: Klebsiella aerogenes K1+ 1082E; Mueller-Hinton agar, 20 hours at 37°C; read-out: MIC
Method in brief: as §1

[8] = test system: Moraxella catarrhalis C2431; settings: Moraxella catarrhalis C2431; Mueller-Hinton agar, 20 hours at 37°C; read-out: MIC
Method in brief: as §1

[9] = test system: Moraxella catarrhalis 25240; settings: Moraxella catarrhalis 25240; Mueller-Hinton agar, 20 hours at 37°C; read-out: MIC
Method in brief: as §1

[10] = test system: Acinetobacter calcoaceticu 15473; settings: Acinetobacter calcoaceticu 15473; Mueller-Hinton agar, 20 hours at 37°C; read-out: MIC
Method in brief: as §1

Compound: CO/N=C(\C(=O)NC1C(=O)N2C(C(=O)O)=C(Sc3cc(N)nc(N)n3)CSC12)c1csc(N)n1 (stereo not shown) [Compound No. 25, 7-[(Z)-2-(2-amino-thiazol-4-yl)-2-methoxyimino-acetylamino]-3-(2,6-diamino-pyrimidin-4-ylsulfanyl)-8-oxo-5-thia-1-azabicyclo[4,2,0]oct-2-ene-2-carboxylic acid]
- MIC [1]: 8 µg/mL (≈ 15.3 µM)
- MIC [2]: 8 µg/mL (≈ 15.3 µM)
- MIC [3]: > 64 µg/mL
- MIC [4]: 1 µg/mL (≈ 1.91 µM)
- MIC [5]: > 64 µg/mL
- MIC [6]: 1 µg/mL (≈ 1.91 µM)
- MIC [7]: > 64 µg/mL
- MIC [8]: ≤ 0.008 µg/mL
- MIC [9]: ≤ 0.008 µg/mL
- MIC [10]: 64 µg/mL (≈ 122 µM)
